According to publication PMC11206519, “Multi-Endpoint Toxicological Assessment of Chrysin Loaded Oil-in-Water Emulsion System in Different Biological Models” (Nanomaterials, 2024):

What was measured:
[1] = tested on: D. melanogaster trans-heterozygous mwh+/+flr3 larvae of the HB cross; test: SMART wing spot test, anti-mutagenicity, HB cross
Protocol: The somatic mutation and recombination test, or the wing spot test, using D. melanogaster was employed as an in vivo system to assess the mutagenicity and anti-mutagenicity of chrysin-ES. Two different crosses were conducted: (i) a standard cross (ST) and (ii) a high bioactivation cross (HB). The standard cross larvae were obtained from virgin female of flr3/TM3, Ser crossed with males of mwh/mwh, while the HB cross larvae expressing cytochrome P450 enzymes involved in xenobiotic biotransformation were obtained from virgin females of ORR/ORR; flr^3/In (3LR) TM3, ri p^psep l (3)89Aa bx^34e e Bd^s crossed with males of mwh/mwh. The flies were cultured at a constant temperature of 25 ± 1 °C and 60–70% RH at photoperiod 12:12 (light/dark). To evaluate the mutagenicity of chrysin and chrysin-ES, a hundred larva F1 progenies derived from the above crossing were fed with instant Drosophila medium (Formula 4-24®), Carolina, Burlington, NC, USA) containing chrysin or chrysin-ES (20–120 µg/mL). DI was used as a negative control, while 20 mM urethane (URE) was used as a positive control. The larvae were reared on each medium until pupation at 25 °C. After that, forty wings of surviving flies in each group were collected for mutant analysis. The mutant spots on the wings, including small single spots, large single spots, and twin spots, were counted. The statistical significance was calculated as previously described by Frei and Würgler.
Furthermore, the anti-mutagenicity of the samples was performed by a similar procedure as mentioned above.

3T3-L1 = test: MTT cytotoxicity assay; assay type: cell-based; details: Mus musculus, 48 h
Protocol: (§1) RAW 264.7 (murine macrophage-like cell), 3T3-L1 adipocyte (murine adipocyte), HEK293 (human embryonic kidney cell), and LX-2 (human hepatic stellate cell) were obtained from American Type Culture Collection (ATCC, Manassas, VA, USA). RAW 264.7 macrophages were cultured as a suspension culture in an ultra-low attachment culture dish, whereas the others were cultured as adherent cells in a cell culture flask. The cells were grown in Dulbecco’s Modified Eagle Medium (DMEM) with L-glutamine, supplemented with 10% fetal bovine serum (FBS) (RAW 264.7, HEK293, and LX-2) or 10% fetal calf serum (FCS) (3T3-L1) and 1% penicillin under 5% CO2, at 37 °C. […] Blank-ES was used as a vehicle control. The amount of blank-ES was equal to chrysin-ES amount that was used for the treatment. The cytotoxicity of chrysin, chrysin-ES, and blank-ES in each cell was determined using an MTT assay. […] Then, the solution was gently removed, and the formazan crystal was dissolved with dimethyl sulfoxide (DMSO). The soluble formazan was measured using a microplate reader (Bio-TEK Synergy Hybrid Reader H4) at 540 nm. The cell viability is directly related to the absorbance of formazan. The percentage of cell viability was calculated using the following equation. Cell viability (%) = (Absorbance (sample))/(Absorbance (control)) × 100

HEK-293 = test: MTT cytotoxicity assay; assay type: cell-based; details: Homo sapiens, HEK293, 48 h
Protocol: as §1

LX-2 = test: MTT cytotoxicity assay; assay type: cell-based; details: Homo sapiens, LX-2, 48 h
Protocol: as §1

[2] = NMU (sodium nitrite 36 mM: methylurea 10 mM) + 20 μg/mL
[3] = decreases cell viability by 20%
[4] = decreases cell viability by 50%

## O=c1cc(-c2ccccc2)oc2cc(O)cc(O)c12 [Chrysin, 5,7-dihydroxyflavone]
[1]; EMS 5 mM + 20 μg/mL
  Inhibition (%): 25%
  Inhibitory Classification: Weak
  Mutant spots per individual (number of spots), Large Single: 1.63 (65)
  Mutant spots per individual (number of spots), Small Single: 5.3 (212)
  Mutant spots per individual (number of spots), Total: 7.80 (312)
  Mutant spots per individual (number of spots), Twin: 0.88 (35)
[1]; EMS 5 mM + 40 μg/mL
  Inhibition (%): 31%
  Inhibitory Classification: Weak
  Mutant spots per individual (number of spots), Large Single: 0.78 (31)
  Mutant spots per individual (number of spots), Small Single: 6.03 (241)
  Mutant spots per individual (number of spots), Total: 7.13 (285)
  Mutant spots per individual (number of spots), Twin: 0.33 (13)
[1]; EMS 5 mM + 80 μg/mL
  Inhibition (%): 60%
  Inhibitory Classification: Moderate
  Mutant spots per individual (number of spots), Large Single: 0.73 (29)
  Mutant spots per individual (number of spots), Small Single: 3.23 (129)
  Mutant spots per individual (number of spots), Total: 4.18 (167)
  Mutant spots per individual (number of spots), Twin: 0.23 (9)
[1]; EMS 5 mM + 120 μg/mL
  Inhibition (%): 76%
  Inhibitory Classification: Strong
  Mutant spots per individual (number of spots), Large Single: 0.20 (8)
  Mutant spots per individual (number of spots), Small Single: 2.20 (88)
  Mutant spots per individual (number of spots), Total: 2.53 (101)
  Mutant spots per individual (number of spots), Twin: 0.13 (5)
[1]; MMC 0.05 mM + 20 μg/mL
  Inhibition (%): 5%
  Inhibitory Classification: Negligible
  Mutant spots per individual (number of spots), Large Single: 0.85 (34)
  Mutant spots per individual (number of spots), Small Single: 3.70 (148)
  Mutant spots per individual (number of spots), Total: 4.65 (186)
  Mutant spots per individual (number of spots), Twin: 0.10 (4)
[1]; MMC 0.05 mM + 40 μg/mL
  Inhibition (%): 60%
  Mutant spots per individual (number of spots), Large Single: 0.18 (7)
  Mutant spots per individual (number of spots), Small Single: 1.63 (65)
  Mutant spots per individual (number of spots), Total: 1.93 (77)
  Mutant spots per individual (number of spots), Twin: 0.13 (5)
[1]; MMC 0.05 mM + 80 μg/mL
  Inhibition (%): 79%
  Inhibitory Classification: Strong
  Mutant spots per individual (number of spots), Large Single: 0.08 (3)
  Mutant spots per individual (number of spots), Small Single: 0.98 (39)
  Mutant spots per individual (number of spots), Total: 1.05 (42)
  Mutant spots per individual (number of spots), Twin: 0 (0)
[1]; MMC 0.05 mM + 120 μg/mL
  Inhibition (%): 88%
  Inhibitory Classification: Strong
  Mutant spots per individual (number of spots), Large Single: 0.03 (1)
  Mutant spots per individual (number of spots), Small Single: 0.55 (22)
  Mutant spots per individual (number of spots), Total: 0.58 (23)
  Mutant spots per individual (number of spots), Twin: 0 (0)
[1]; [2]
  Inhibition (%): 54%
  Inhibitory Classification: Moderate
  Mutant spots per individual (number of spots), Large Single: 0.09 (3)
  Mutant spots per individual (number of spots), Small Single: 0.78 (25)
  Mutant spots per individual (number of spots), Total: 0.88 (28)
  Mutant spots per individual (number of spots), Twin: 0 (0)
[1]; NMU (sodium nitrite 36 mM: methylurea 10 mM) + 20 μg/mL, listed as chrysin
  Inhibitory Classification: moderate (41–60%)
[1]; NMU + 40 μg/mL
  Inhibition (%): 80%
  Inhibitory Classification: Strong
  Mutant spots per individual (number of spots), Large Single: 0.05 (2)
  Mutant spots per individual (number of spots), Small Single: 0.30 (12)
  Mutant spots per individual (number of spots), Total: 0.38 (15)
  Mutant spots per individual (number of spots), Twin: 0.03 (1)
[1]; NMU + 80 μg/mL
  Inhibition (%): 81%
  Inhibitory Classification: Strong
  Mutant spots per individual (number of spots), Large Single: 0.04 (1)
  Mutant spots per individual (number of spots), Small Single: 0.32 (9)
  Mutant spots per individual (number of spots), Total: 0.36 (10)
  Mutant spots per individual (number of spots), Twin: 0 (0)
[1]; NMU + 120 μg/mL
  Inhibition (%): 95%
  Inhibitory Classification: Strong
  Mutant spots per individual (number of spots), Large Single: 0.05 (2)
  Mutant spots per individual (number of spots), Small Single: 0.05 (2)
  Mutant spots per individual (number of spots), Total: 0.10 (4)
  Mutant spots per individual (number of spots), Twin: 0 (0)
[1]; URE 20 mM + 20 μg/mL
  Inhibition (%): 84%
  Inhibitory Classification: Strong
  Mutant spots per individual (number of spots), Large Single: 0.15 (6)
  Mutant spots per individual (number of spots), Small Single: 1.55 (62)
  Mutant spots per individual (number of spots), Total: 1.70 (68)
  Mutant spots per individual (number of spots), Twin: 0 (0)
[1]; URE 20 mM + 40 μg/mL
  Inhibition (%): 84%
  Inhibitory Classification: Strong
  Mutant spots per individual (number of spots), Large Single: 0 (0)
  Mutant spots per individual (number of spots), Small Single: 1.75 (70)
  Mutant spots per individual (number of spots), Total: 1.75 (70)
  Mutant spots per individual (number of spots), Twin: 0 (0)
[1]; URE 20 mM + 80 μg/mL
  Inhibition (%): 92%
  Inhibitory Classification: Strong
  Mutant spots per individual (number of spots), Large Single: 0.03 (1)
  Mutant spots per individual (number of spots), Small Single: 0.88 (35)
  Mutant spots per individual (number of spots), Total: 0.90 (36)
  Mutant spots per individual (number of spots), Twin: 0 (0)
[1]; URE 20 mM + 120 μg/mL
  Inhibition (%): 89%
  Inhibitory Classification: Strong
  Mutant spots per individual (number of spots), Large Single: 0.08 (3)
  Mutant spots per individual (number of spots), Small Single: 1.08 (43)
  Mutant spots per individual (number of spots), Total: 1.18 (47)
  Mutant spots per individual (number of spots), Twin: 0.03 (1)
3T3-L1; [3]
  IC20: > 90 µM
3T3-L1; [4]
  IC50: > 90 µM
HEK-293; [3]
  IC20: ~53 µM
HEK-293; [4]
  IC50: > 90 µM
LX-2; [3]
  IC20: ~52 µM
LX-2; [4]
  IC50: > 90 µM
